Key:
[1] = in vivo; conditions: for Funabs (true unabsorbed fraction) / absorbed fraction in the gastrointestinal tract: 24 h
Source text: Male Sprague–Dawley rats at 6–9 weeks old (weighing 200–260 g) were purchased from Charles River Company Korea (Orient, Seoul, Korea). […] All rats were maintained in the same conditions as a reported method.
For the oral study, after overnight fasting with free access to water, rats were divided into three subgroups according to the doses of LC478 administered, which were the same as in the intravenous study. […] Other procedures were followed to the intravenous study.
Based on the standard methods, we calculated the following pharmacokinetic parameters using non-compartmental analysis (WinNonlin®; Professional Edition version 2.1; Pharsight, Mountain View, CA, USA): The total area under the plasma concentration–time curve from time zero to last blood sampling time (AUClast) or time infinity (AUCinf) by log-linear trapezoidal extrapolation method, terminal half-life, time-averaged total body, renal, and non-renal clearances (CL, CLR, and CLNR, respectively), mean residence time (MRT), apparent volume of distribution at a steady state (Vss), apparent oral clearance (CL/F), and apparent volume of distribution during elimination (Vz/F). We directly read the peak plasma concentration (Cmax) and time to reach Cmax (Tmax) from the experimental data.
The absorbed fraction of oral dose (Fabs), absolute bioavailability (F), and relative bioavailability (Frel) were calculated by the following equations. (1) F (%)=AUCinf, p.o/AUCinf, i.v×100 (2) Frel (%)=AUCinf with LC478/AUCinf without LC478×100 (3) GI24 h, p.o/100=(1−Fabs)+(F/100×GI24 h, i.v./100)

[2] = tested on: P-gp; assay: in vitro; conditions: rat, pH 7.4
Description: To evaluate the effect of LC478 on P-gp mediated efflux activity in rat’s small intestine, transport experiments were conducted following the previously reported method. The incubation medium (pH 7.4) involving […], 5 mM KCl, 1.2 mM CaCl2, 1.2 mM MgCl2, 25 mM NaHCO3, 1.6 mM Na2HPO4, 0.4 mM NaH2PO4, 5 mM D-glucose, and 5 mM D-mannitol was used throughout the transport experiments. […] The small intestine (2 cm from the proximal part of jejunum) was removed, opened along the mesenteric border and rinsed immediately in ice-cold buffer (pH 7.4) under carbogen O2/CO2 (95%/5%) bubbling. The specimens were fixed to 0.61 cm^2 surface area of cells in the Ussing chambers without harming the underlying muscle layer and formed two compartments, mucosal (M) and serosal (S) chambers. […] Cumulative corrections were made for previously removed samples and apparent permeability coefficients (Papp, cm/s) were calculated as follows: Papp = Q/A·c·t, where Q is the total amount of the drug permeated throughout the incubation time, A is the diffusion area of the Ussing chamber, c is the initial drug concentration in the donor compartment, and t is the total time of the experiment. Efflux ratios were calculated from Papp values by: Efflux ratio = secretory Papp/absorptive Papp.

[3] = Disappearance of docetaxel in rat hepatic microsomes with LC478; type: in vitro ADME; conditions: hepatic microsomes
Description: (§1) The hepatic and intestinal microsomes were prepared based on a similar reported method.
(§2) Adding 0.1 M phosphate buffer (pH 7.4) adjusted the total volume as 0.5 mL, and then the components were incubated at 37 °C using a thermomixer at 500 opm. After incubation of 15 and 30 min for the hepatic and intestinal microsomes, respectively, 1 mL of acetonitrile with 5 µg/mL of paclitaxel as an internal standard added to terminate the reaction.
(§3) The unweighted kinetic data from rat hepatic and intestinal microsomes were fitted using a single-site Michaelis–Menten Equation V = Vmax × [S]/(Km + [S])(4) where [S] is the substrate concentration, Vmax is maximal velocity, and Km is substrate concentration for half-maximal velocity. The CLint was calculated by dividing the Vmax by the Km.

[4] = Disappearance of docetaxel in rat intestinal microsomes with LC478; type: in vitro ADME; conditions: intestinal microsomes
Description: as §1, §2, §3

[5] = Rat plasma protein binding of docetaxel by equilibrium dialysis; type: in vitro ADME; conditions: equilibrium dialysis
Description: A 1 mL of the plasma was dialyzed against 1 mL of isotonic Sørensen phosphate buffer (pH 7.4) containing 3% dextran (w/v) in a dialysis cell (Spectrum Medical Industries, Laguna Hills, CA, USA) using a Spectra/Por 4 membrane (mol. wt. cutoff 12−14 KDa; Spectrum Medical Industries, USA).

[6] = male, Sprague-Dawley, rat, in vivo, po, 20 mg/kg
[7] = male, Sprague-Dawley, rat, in vivo, po, 30 mg/kg
[8] = male, Sprague-Dawley, rat, in vivo, po, 100 mg/kg

CC(=O)O[C@@]12CO[C@@H]1C[C@H](O)[C@@]1(C)C(=O)[C@H](O)C3=C(C)[C@@H](OC(=O)[C@H](O)[C@@H](NC(=O)OC(C)(C)C)c4ccccc4)C[C@@](O)([C@@H](OC(=O)c4ccccc4)[C@H]21)C3(C)C [docetaxel]
CLR,fu (CLR considering the free fraction in plasma) ([1]; male, Sprague-Dawley, rat, in vivo): 5.04 mL/min/kg | CLR,fu (CLR considering the free fraction in plasma) ([1]; male, Sprague-Dawley, rat, in vivo, 30 mg/kg): 5.15 mL/min/kg | CLR,fu (CLR considering the free fraction in plasma) ([1]; male, Sprague-Dawley, rat, in vivo, 100 mg/kg): 2.55 mL/min/kg | CLR [1, 6]: 3.43 ± 1.15 mL/min/kg | Tmax [1, 6]: 15 min | AUC(0-t) ([1]; male, Sprague-Dawley, rat, in vivo, po, 20 mg/kg, AUClast): 82.8 ng·h/mL | CL/F ([1]; male, Sprague-Dawley, rat, in vivo, po, 20 mg/kg, CL/F): 3040 ± 805 mL/min/kg | CL renal ([1]; male, Sprague-Dawley, rat, in vivo, po, 20 mg/kg, CLR): 3.5 ± 1.1 mL/min/kg | Vd/F ([1]; male, Sprague-Dawley, rat, in vivo, po, 20 mg/kg, Vz/F): 670 ± 170 L/kg | Funabs (true unabsorbed fraction) [1, 7]: 36.5% | absorbed fraction in the gastrointestinal tract [1, 7]: 0.635 | F increased by [1, 8]: 102% | Frel increased by [1, 8]: 109% | Funabs (true unabsorbed fraction) [1, 8]: 20.0% | absorbed fraction in the gastrointestinal tract [1, 8]: 0.801 | Tmax ([1]; rats, docetaxel 20 mg/kg oral, with 30 mg/kg oral LC478): 30 (15−30) min | Papp B→A at 3 h, 1 µM [2]: 1.08 ± 0.115 ×10⁻⁶ cm/s | Vmax for disappearance of docetaxel ([3]; 5 µM LC478): 0.438 ± 0.0578 nmol/min/mg protein | Vmax for disappearance of docetaxel ([3]; 10 µM LC478): 0.427 ± 0.0411 nmol/min/mg protein | Vmax for disappearance of docetaxel ([4]; 0 µM LC478): 0.109 ± 0.0502 nmol/min/0.3 mg protein | Vmax for disappearance of docetaxel ([4]; 1 µM LC478): 0.133 ± 0.0343 nmol/min/0.3 mg protein | Vmax for disappearance of docetaxel ([4]; 5 µM LC478): 0.133 ± 0.0737 nmol/min/0.3 mg protein | Vmax for disappearance of docetaxel ([4]; 10 µM LC478): 0.105 ± 0.0355 nmol/min/0.3 mg protein | Bound fraction to fresh rat plasma ([5]; with 0 μg/mL LC478): 30.6% ± 11.5% | Bound fraction to fresh rat plasma ([5]; with 0.1 μg/mL LC478): 33.4% ± 3.59% | Bound fraction to fresh rat plasma ([5]; with 10 μg/mL LC478): 29.7% ± 10.1%
